Measured values published in patent publication US7767659B2, “Synthesis of naturally occurring ecteinascidins and related compounds” (Pharma Mar, S.A., priority 2002, dated 2010).

Key:
K-562 = test: Inhibition of cells growth by colorimetric assay (SRB); conditions: Homo sapiens, K562, 48 h; for GI50: read-out: K562 GI50; for CC50: read-out: K562 LC50; for IC (TGI): read-out: K562 TGI
Outline: (§1)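 Colorimetric SRB read (490 nm) on triplicate wells after 48 h at 37 °C, 5% CO2. Dose range 10 to 10^−8 μg/ml; 5×10^3 cells/well pre-attached 18 h.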

HeLa-APL = test: as above; conditions: Homo sapiens, 48 h; for GI50: read-out: HELA-APL GI50; for CC50: read-out: HELA-APL LC50
Outline: as §1

SK-MEL-28 = test: as above; conditions: Homo sapiens, SK-MEL-28, 48 h; for GI50: read-out: MEL-28 GI50; for CC50: read-out: MEL-28 LC50; for IC (TGI): read-out: MEL-28 TGI
Outline: as §1

DU-145 = test: as above; conditions: Homo sapiens, DU-145, 48 h; for GI50: read-out: DU145 GI50; for CC50: read-out: DU145 LC50; for IC (TGI): read-out: DU145 TGI
Outline: as §1

IGROV-1 = test: as above; conditions: Homo sapiens, IGROV-1, 48 h; for GI50: read-out: IGROV GI50; for CC50: read-out: IGROV LC50; for IC (TGI): read-out: IGROV TGI
Outline: as §1

SK-BR-3 = test: as above; conditions: Homo sapiens, SK-BR-3, 48 h; for GI50: read-out: SK-BR3 GI50; for CC50: read-out: SK-BR3 LC50; for IC (TGI): read-out: SK-BR3 TGI
Outline: as §1

PANC-1 = test: as above; conditions: Homo sapiens, PANC-1, 48 h; for GI50: read-out: PANC-1 GI50; for CC50: read-out: PANC-1 LC50; for IC (TGI): read-out: PANC-1 TGI
Outline: as §1

LNCaP = test: as above; conditions: Homo sapiens, LNCaP, 48 h; for GI50: read-out: LNCAP GI50; for CC50: read-out: LNCAP LC50; for IC (TGI): read-out: LNCAP TGI
Outline: as §1

IGROV-ET = test: as above; conditions: Homo sapiens, 48 h; for GI50: read-out: IGROV-ET GI50; for CC50: read-out: IGROV-ET LC50; for IC (TGI): read-out: IGROV-ET TGI
Outline: as §1

LoVo-Dox = test: as above; conditions: Homo sapiens, 48 h; for GI50: read-out: LOVO-DOX GI50; for CC50: read-out: LOVO-DOX LC50; for IC (TGI): read-out: LOVO-DOX TGI
Outline: as §1

HeLa = test: as above; conditions: Homo sapiens, HeLa, 48 h; for GI50: read-out: HELA GI50; for CC50: read-out: HELA LC50; for IC (TGI): read-out: HELA TGI
Outline: as §1

LoVo = test: cells; conditions: Homo sapiens, LoVo, 48 h; for GI50: read-out: LOVO GI50; for CC50: read-out: LOVO LC50; for IC (TGI): read-out: LOVO TGI
Outline: as §1

A-549 = test: cells; conditions: Homo sapiens, A549, 48 h; for GI50: read-out: A549 GI50; for CC50: read-out: A549 LC50; for IC (TGI): read-out: A549 TGI
Outline: as §1

HT-29 = test: cells; conditions: Homo sapiens, HT-29, 48 h; for GI50: read-out: HT29 GI50; for CC50: read-out: HT29 LC50; for IC (TGI): read-out: HT29 TGI
Outline: as §1

SMILES: C=CCN1[C@@H]2c3c(cc(C)c(OC)c3O)C[C@H]1[C@H](C#N)N1C2[C@@H]2SC[C@]3(NCCc4cc(OC(=O)OC(C)(C)C)c(OC)cc43)C(=O)OC[C@H]1c1c3c(c(C)c(O)c12)OCO3 (some centres unmarked) [compound 46]
- GI50 (K-562): 0.023 µM
- CC50 (K-562): 4.25 µM
- IC (TGI) (K-562): 0.0648 µM
- GI50 (HeLa-APL): 0.0277 µM
- CC50 (HeLa-APL): 0.0978 µM
- IC (TGI) (HeLa-APL; read-out: HELA-APL TGI): 0.052 µM
- GI50 (SK-MEL-28): 0.0296 µM
- CC50 (SK-MEL-28): 0.107 µM
- IC (TGI) (SK-MEL-28): 0.0564 µM
- GI50 (DU-145): 0.0234 µM
- CC50 (DU-145): 0.105 µM
- IC (TGI) (DU-145): 0.0496 µM
- GI50 (IGROV-1): 0.0299 µM
- CC50 (IGROV-1): 11.7 µM
- IC (TGI) (IGROV-1): 0.0724 µM
- GI50 (SK-BR-3): 0.0186 µM
- CC50 (SK-BR-3): 0.247 µM
- IC (TGI) (SK-BR-3): 0.0532 µM
- GI50 (PANC-1): 0.0619 µM
- CC50 (PANC-1): 11.7 µM
- IC (TGI) (PANC-1): 0.398 µM
- GI50 (LNCaP): 0.0147 µM
- CC50 (LNCaP): 0.0592 µM
- IC (TGI) (LNCaP): 0.0296 µM
- GI50 (IGROV-ET): 0.285 µM
- CC50 (IGROV-ET): 11.7 µM
- IC (TGI) (IGROV-ET): 1.35 µM
- GI50 (LoVo-Dox): 0.426 µM
- CC50 (LoVo-Dox): 11.7 µM
- IC (TGI) (LoVo-Dox): 1.35 µM
- GI50 (HeLa): 0.0264 µM
- CC50 (HeLa): 0.0974 µM
- IC (TGI) (HeLa): 0.0501 µM
- GI50 (LoVo): 0.0553 µM
- CC50 (LoVo): 11.7 µM
- IC (TGI) (LoVo): 0.304 µM
- GI50 (A-549): 0.0289 µM
- CC50 (A-549): 2.77 µM
- IC (TGI) (A-549): 0.0618 µM
- GI50 (HT-29): 0.0429 µM
- CC50 (HT-29): 11.7 µM
- IC (TGI) (HT-29): 0.117 µM

SMILES: C=CCN1[C@@H]2c3c(cc(C)c(OC)c3O)C[C@H]1[C@H](C#N)N1C2[C@@H]2SC[C@]3(NCCc4cc(OC(=O)OC(C)(C)C)c(OC)cc43)C(=O)OC[C@H]1c1c3c(c(C)c(OC(=O)/C=C/c4ccccc4)c12)OCO3 (some centres unmarked) [compound 47]
- GI50 (K-562): 0.173 µM
- CC50 (K-562): 10.2 µM
- IC (TGI) (K-562): 2.32 µM
- GI50 (HeLa-APL): 3.74 µM
- CC50 (HeLa-APL): 10.2 µM
- GI50 (SK-MEL-28): 8.7 µM
- CC50 (SK-MEL-28): 10.2 µM
- IC (TGI) (SK-MEL-28): 10.2 µM
- GI50 (DU-145): 4.12 µM
- CC50 (DU-145): 10.2 µM
- IC (TGI) (DU-145): 10.2 µM
- GI50 (IGROV-1): 4.22 µM
- CC50 (IGROV-1): 10.2 µM
- IC (TGI) (IGROV-1): 10.2 µM
- GI50 (SK-BR-3): 0.301 µM
- CC50 (SK-BR-3): 10.2 µM
- IC (TGI) (SK-BR-3): 1.37 µM
- GI50 (PANC-1): 10.2 µM
- CC50 (PANC-1): 10.2 µM
- IC (TGI) (PANC-1): 10.2 µM
- GI50 (LNCaP): 0.449 µM
- CC50 (LNCaP): 10.2 µM
- IC (TGI) (LNCaP): 2.92 µM
- GI50 (IGROV-ET): 4.92 µM
- CC50 (IGROV-ET): 10.2 µM
- IC (TGI) (IGROV-ET): 10.2 µM
- GI50 (LoVo-Dox): 10.2 µM
- CC50 (LoVo-Dox): 10.2 µM
- IC (TGI) (LoVo-Dox): 10.2 µM
- GI50 (HeLa): 4.1 µM
- CC50 (HeLa): 10.2 µM
- IC (TGI) (HeLa): 10.2 µM
- GI50 (LoVo): 9.16 µM
- CC50 (LoVo): 10.2 µM
- IC (TGI) (LoVo): 10.2 µM
- GI50 (A-549): 10.2 µM
- CC50 (A-549): 10.2 µM
- IC (TGI) (A-549): 10.2 µM
- GI50 (HT-29): 10.2 µM
- CC50 (HT-29): 10.2 µM
- IC (TGI) (HT-29): 10.2 µM
